Values after ≈ are worked out from the molar mass of the structure shown. Where a SMILES comes first, the peptide text is derived from it. Bridges are numbered along the chain shown (N, C = ends). [ ]: non-standard residue; d: D form. The star is where a group is joined. X51 = O=C(c1cc(Cl)nc(Cl)c1)*; X52 = O=C(c1nc2ccccc2s1)*; X48 = O=C(c1ccc(Cl)nc1)*; Dab = NCC[C@H](N)C(=O)O; Abu = CC[C@H](N)C(=O)O; Dap = NC[C@H](N)C(=O)O
How the values were obtained:
mouse kidney = assay: Nephrotoxicity in a mouse model (kidney histology); format: in vivo; details: mice (n=3), subcutaneous 12 mg/kg free base every 2 h, 6 doses in one day; for Max Overall Kidney Histological Score: kidney ~20 h after last dose; for Max Kidney Histological Score: semiquantitative score 0 to +5
Experimental: Polymyxin B sulphate and colistin sulphate were supplied by Betapharma (Shanghai Co., Ltd, China). Stock solutions of compounds in saline (5 mg base/mL) were stored at 4° C. before use. Mice (n=3) were subcutaneously administered with the compound at 12 mg/kg of the free base form every 2 h, 6 doses in one day. At approximately 20 h after the last dose, mice were euthanised by inhalation of an overdose of isoflurane. Immediately after blood sampling, the right kidney from each mouse was collected immediately and placed in 10% formalin in 5 mL plastic tubes and the left kidney placed in a pre-weighed 14 mL plastic tubes, weighed again and stored at −20° C. pending homogenization and analysis of polymyxin B and colistin. The frozen kidney samples were thawed, homogenized in 2 mL of Milli-Q water and stored in a −20° C. freezer. The formalin-fixed kidneys were then sent to the Australian Phenomics Network-Histopathology and Organ Pathology (The University of Melbourne, Parkville, Australia) for histological examination. Samples were examined by a pathologist who was blind to the treatment groups.
Lesions were rated as follows: mild acute tubular damage with tubular dilation, prominent nuclei and a few pale tubular casts (Grade 1); severe acute tubular damage with necrosis of tubular epithelial cells and numerous tubular casts (Grade 2); acute cortical necrosis/infarction of tubules and glomeruli with or without papillary necrosis (Grade 3). The grades were given the following scores: grade 1=1, grade 2=4, and grade 3=10. The percentage of area of the kidney slice showing histological damage was scored as follows: <1%=0, 1 to <5%=1, 5 to <10%=2, 10 to <20%=3, 20 to <30%=4, 30 to <40%=5, and >40%=6. The overall kidney histological score was calculated as the product of the percentage score and grade score. These scores were then expressed as a semiquantitative score (Kidney Histological Score) on a scale of 0 to +5 for renal histological changes. These scores were assigned as follows: SQS 0=no significant change (overall score, <1); SQS +1=mild damage (overall score, 1 to <15); SQS +2=mild to moderate damage (overall score, 15 to <30); SQS +3=moderate damage (overall score, 30 to <45); SQS +4=moderate to severe damage (overall score, 45 to <60); and SQS +5=severe damage (overall score, ≥60) (Yousef, J., et al., (2011) Antimicrob. Agents and Chemother. 55 (9), 4044-4049).
Any compound with a kidney histological score of ≤+1.0 is considered to have a low nephrotoxicity in this model.

[1] = system: Acinetobacter baumannii ATCC 17978; format: cell-based; details: A. baumannii ATCC 17978; CAMHB broth microdilution
How it was run: (§1)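 The read-out is the MIC, obtained by CLSI broth microdilution (M100-S24) in cation-adjusted Mueller-Hinton broth. The compounds were lipopeptide TFA salts, and polymyxin B sulphate served as control.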

[2] = system: Acinetobacter baumannii FADDI-AB034; format: cell-based; details: A. baumannii FADDI-AB034; CAMHB broth microdilution
How it was run: as §1

[3] = system: Enterobacter cloacae FADDI-EC001; format: cell-based; details: E. cloacae FADDI-EC001; CAMHB broth microdilution
How it was run: (§2)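 MIC; CLSI broth microdilution; cation-adjusted MH broth; test articles as TFA salts; polymyxin B control; polymyxin-susceptible isolates.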

[4] = system: Enterobacter cloacae FADDI-EC003; format: cell-based; details: E. cloacae FADDI-EC003; CAMHB broth microdilution
How it was run: as §1

[5] = system: Enterobacter cloacae FADDI-EC006; format: cell-based; details: E. cloacae FADDI-EC006; CAMHB broth microdilution
How it was run: as §1

[6] = system: Klebsiella pneumoniae FADDI-KP022; format: cell-based; details: K. pneumoniae FADDI-KP022; CAMHB broth microdilution
How it was run: as §1

[7] = system: Klebsiella pneumoniae FADDI-KP032; format: cell-based; details: K. pneumoniae FADDI-KP032; CAMHB broth microdilution
How it was run: as §1

[8] = system: Klebsiella pneumoniae Kp BM1; format: cell-based; details: K. pneumoniae Kp BM1; CAMHB broth microdilution
How it was run: as §2

[9] = system: Pseudomonas aeruginosa ATCC 27853; format: cell-based; details: P. aeruginosa ATCC 27853; CAMHB broth microdilution
How it was run: as §1

[10] = system: Pseudomonas aeruginosa FADDI-PA01; format: cell-based; details: P. aeruginosa FADDI-PA01; CAMHB broth microdilution
How it was run: as §1

[11] = system: Pseudomonas aeruginosa FADDI-PA022; format: cell-based; details: P. aeruginosa FADDI-PA022; CAMHB broth microdilution
How it was run: as §1

[12] = system: Pseudomonas aeruginosa FADDI-PA038; format: cell-based; details: P. aeruginosa FADDI-PA038; CAMHB broth microdilution
How it was run: as §1

[13] = system: Acinetobacter baumannii FADDI-AB030; assay: microbe, parasite or virus in culture; format: cell-based; details: A. baumannii FADDI-AB030; CAMHB broth microdilution
How it was run: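 Broth microdilution MIC in cation-adjusted Mueller-Hinton broth per CLSI M100-S24; lipopeptides tested as TFA salts. FADDI-AB030 is a multidrug-resistant clinical isolate. Polymyxin B sulphate served as control.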

`CC[C@@H]1NC(=O)[C@@H](CC(C)C)NC(=O)[C@H](CCN)NC(=O)[C@@H](NC(=O)[C@H](CN)NC(=O)[C@@H](NC(=O)[C@H](CCN)NC(=O)c2cc(Cl)nc(Cl)c2)[C@@H](C)O)CCNC(=O)[C@H]([C@@H](C)O)NC(=O)[C@H](CCN)NC(=O)[C@H](CCN)NC1=O` [Compound 19] (X51-[Dab]T[Dap][Dab][Dab][dL][Abu][Dab][Dab]T; lactam 4-C) was tested, and the “Max Overall Kidney Histological Score” value (mouse kidney) was 0.0 and the “Max Kidney Histological Score” value (mouse kidney) was 0 (SQS 0=no significant change (overall score, <1)).

In the case of `CC[C@@H]1NC(=O)[C@@H](CC(C)C)NC(=O)[C@H](CCN)NC(=O)[C@@H](NC(=O)[C@H](CN)NC(=O)[C@@H](NC(=O)[C@H](CCN)NC(=O)c2nc3ccccc3s2)[C@@H](C)O)CCNC(=O)[C@H]([C@@H](C)O)NC(=O)[C@H](CCN)NC(=O)[C@H](CCN)NC1=O` [Compound 70] (X52-[Dab]T[Dap][Dab][Dab][dL][Abu][Dab][Dab]T; lactam 4-C), the Minimum inhibitory concentration [1] is reported as 0.5 µg/mL (≈ 0.435 µM), the Minimum inhibitory concentration [2] is reported as 1 µg/mL (≈ 0.871 µM) and the Minimum inhibitory concentration [3] is reported as 0.25 µg/mL (≈ 0.218 µM). It also gave a Minimum inhibitory concentration [4] of 0.25 µg/mL (≈ 0.218 µM), a Minimum inhibitory concentration [5] of 0.25 µg/mL (≈ 0.218 µM) and a Minimum inhibitory concentration [6] of under 0.125 µg/mL. The Minimum inhibitory concentration [7] was under 0.125 µg/mL, the Minimum inhibitory concentration [8] was under 0.125 µg/mL and the Minimum inhibitory concentration [9] was 0.5 µg/mL (≈ 0.435 µM). It also gave a Minimum inhibitory concentration [10] of 0.25 µg/mL (≈ 0.218 µM), a Minimum inhibitory concentration [11] of 0.5 µg/mL (≈ 0.435 µM) and a Minimum inhibitory concentration [12] of 1 µg/mL (≈ 0.871 µM). For the same molecule, the Minimum inhibitory concentration [13] was 0.5 µg/mL (≈ 0.435 µM), the “Max Overall Kidney Histological Score” value (mouse kidney) was 0.0 and the “Max Kidney Histological Score” value (mouse kidney) was 0 (SQS 0=no significant change (overall score, <1)).

With `CC[C@@H]1NC(=O)[C@@H](CC(C)C)NC(=O)[C@H](CCN)NC(=O)[C@@H](NC(=O)[C@H](CN)NC(=O)[C@@H](NC(=O)[C@H](CCN)NC(=O)c2ccc(Cl)nc2)[C@@H](C)O)CCNC(=O)[C@H]([C@@H](C)O)NC(=O)[C@H](CCN)NC(=O)[C@H](CCN)NC1=O` [Compound 4] (X48-[Dab]T[Dap][Dab][Dab][dL][Abu][Dab][Dab]T; lactam 4-C) the Minimum inhibitory concentration [1] was 1 µg/mL (≈ 0.888 µM), the Minimum inhibitory concentration [2] was 1 µg/mL (≈ 0.888 µM) and the Minimum inhibitory concentration [3] was 2 µg/mL (≈ 1.78 µM). It also gave a Minimum inhibitory concentration [4] of 0.5 µg/mL (≈ 0.444 µM), a Minimum inhibitory concentration [5] of 4 µg/mL (≈ 3.55 µM) and a Minimum inhibitory concentration [6] of 0.5 µg/mL (≈ 0.444 µM). For the same molecule, the Minimum inhibitory concentration [7] was 1 µg/mL (≈ 0.888 µM), the Minimum inhibitory concentration [8] was 2 µg/mL (≈ 1.78 µM) and the Minimum inhibitory concentration [9] was 0.5 µg/mL (≈ 0.444 µM). It also gave a Minimum inhibitory concentration [10] of 0.5 µg/mL (≈ 0.444 µM), a Minimum inhibitory concentration [11] of 1 µg/mL (≈ 0.888 µM) and a Minimum inhibitory concentration [12] of 1 µg/mL (≈ 0.888 µM). The Minimum inhibitory concentration [13] was 2 µg/mL (≈ 1.78 µM), the “Max Overall Kidney Histological Score” value (mouse kidney) was 0.0 and the “Max Kidney Histological Score” value (mouse kidney) was 0 (SQS 0=no significant change (overall score, <1)).
